Reference: the supplement of paper PMC10307832

Experiments:
Assay in all cases: relative viability (nuclei count vs DMSO), 5 days (fraction); higher = more cells survive
Idelalisib + Navitoclax = compound: CC[C@H](Nc1ncnc2[nH]cnc12)c1nc2cccc(F)c2c(=O)n1-c1ccccc1 [Idelalisib] + CC1(C)CCC(c2ccc(Cl)cc2)=C(CN2CCN(c3ccc(C(=O)NS(=O)(=O)c4ccc(N[C@H](CCN5CCOCC5)CSc5ccccc5)c(S(=O)(=O)C(F)(F)F)c4)cc3)CC2)C1 [Navitoclax] (partner 0.5 µM)
Method in brief: (§1)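 Five library-drug doses in √10 steps were combined with a fixed anchor-drug dose, or a single drug was given alone, by pin tool to lung cancer cell lines in 1536-well plates the day after seeding. Nuclei were stained and counted after 5 days. Relative viability is the nuclei count in treated wells over that in vehicle wells, taken as the median of duplicate plates.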

Idelalisib + Vorinostat = compound: CC[C@H](Nc1ncnc2[nH]cnc12)c1nc2cccc(F)c2c(=O)n1-c1ccccc1 [Idelalisib] + O=C(CCCCCCC(=O)Nc1ccccc1)NO [Vorinostat] (partner 1 µM)
Method in brief: as §1

Idelalisib + Trametinib = compound: CC[C@H](Nc1ncnc2[nH]cnc12)c1nc2cccc(F)c2c(=O)n1-c1ccccc1 [Idelalisib] + CC(=O)Nc1cccc(-n2c(=O)n(C3CC3)c(=O)c3c(Nc4ccc(I)cc4F)n(C)c(=O)c(C)c32)c1 [Trametinib] (partner 0.02 µM)
Method in brief: as §1

Pemetrexed + Decitabine = compound: Nc1nc2[nH]cc(CCc3ccc(C(=O)N[C@@H](CCC(=O)O)C(=O)O)cc3)c2c(=O)[nH]1 [Pemetrexed] + Nc1ncn([C@H]2C[C@H](O)[C@@H](CO)O2)c(=O)n1 [Decitabine] (partner 2 µM)
Method in brief: as §1

Cell Line	relative viability (Idelalisib + Navitoclax; first compound 0.04 µM)	relative viability (Idelalisib + Navitoclax; first compound 0.1265 µM)	relative viability (Idelalisib + Navitoclax; first compound 0.4 µM)	relative viability (Idelalisib + Navitoclax; first compound 1.265 µM)	relative viability (Idelalisib + Navitoclax; first compound 4 µM)	relative viability (Idelalisib + Vorinostat; first compound 0.04 µM)	relative viability (Idelalisib + Vorinostat; first compound 0.1265 µM)	relative viability (Idelalisib + Vorinostat; first compound 0.4 µM)	relative viability (Idelalisib + Vorinostat; first compound 1.265 µM)	relative viability (Idelalisib + Vorinostat; first compound 4 µM)	relative viability (Idelalisib + Trametinib; first compound 0.04 µM)	relative viability (Idelalisib + Trametinib; first compound 0.1265 µM)	relative viability (Idelalisib + Trametinib; first compound 0.4 µM)	relative viability (Idelalisib + Trametinib; first compound 1.265 µM)	relative viability (Idelalisib + Trametinib; first compound 4 µM)	relative viability (Pemetrexed + Decitabine; first compound 0.002 µM)	relative viability (Pemetrexed + Decitabine; first compound 0.006325 µM)	relative viability (Pemetrexed + Decitabine; first compound 0.02 µM)	relative viability (Pemetrexed + Decitabine; first compound 0.06325 µM)	relative viability (Pemetrexed + Decitabine; first compound 0.2 µM)
NCI-H1437	0.956	1.13	1.08	1.17	1.11	0.902	0.932	0.895	0.964	0.903	0.561	0.547	0.461	0.545	0.354	0.528	0.577	0.555	0.443	0.359
NCI-H3122	1.07	1.04	1.02	0.995	0.961	1.01	1.07	0.933	1.02	0.579	0.224	0.223	0.188	0.235	0.225	0.452	0.379	0.413	0.417	0.305
NCI-H727	0.454	0.57	0.416	0.548	0.354	1.24	1.17	1.12	1.25	1.05	0.423	0.457	0.34	0.394	0.387	0.922	0.796	0.835	0.792	0.865
NCI-H1734	0.746	0.841	0.654	0.724	0.584	0.914	0.846	0.627	0.642	0.755	0.696	0.697	0.546	0.69	0.556	0.485	0.472	0.52	0.517	0.427
HCC-15	0.692	0.712	0.67	0.699	0.591	0.764	0.865	0.888	0.889	0.69	0.379	0.29	0.315	0.356	0.332	0.483	0.604	0.684	0.406	0.191
NCI-H2405	1.01	0.759	0.716	0.766	0.622	1.2	1.05	0.908	1.04	1.06	0.672	0.656	0.423	0.622	0.515	0.717	0.649	0.691	0.687	0.685
NCI-H1993	0.844	0.971	0.762	0.912	0.75	0.983	1.09	0.516	0.921	0.487	0.688	0.302	0.617	0.547	0.448	0.619	0.661	0.622	0.576	0.461
NCI-H1650	1.15	1.39	1.08	1.15	0.748	0.513	0.604	0.58	0.587	0.614	0.524	0.46	0.618	0.51	0.575	0.426	0.32	0.545	0.249	0.317
NCI-H460	1.12	1.07	1.09	1.24	1.14	0.526	0.783	0.692	0.525	0.686	0.218	0.194	0.139	0.131	0.113	–	0.468	0.507	0.323	0.0945
NCI-H1651	0.73	1.09	1.01	1.07	0.792	0.577	0.416	0.552	0.617	0.593	0.825	0.85	0.815	0.844	0.814	0.525	0.593	0.631	0.404	0.653
NCI-H1975	1.1	1.08	1.12	1.06	0.692	0.693	0.776	0.681	0.671	0.588	0.328	0.382	0.37	0.375	0.288	0.322	0.403	0.378	0.291	0.223
NCI-H2126	0.896	0.861	0.813	0.805	0.789	0.932	0.865	0.464	0.861	0.671	0.602	0.602	0.542	0.575	0.485	0.55	0.588	0.569	0.608	0.567
201T	1.17	1.13	1.25	1.24	1.1	1.01	0.982	0.874	0.997	0.755	0.701	0.697	0.688	0.759	0.734	0.712	0.803	0.808	0.849	0.85
HCC-78	0.762	0.648	0.682	0.797	0.505	0.462	0.448	0.393	0.468	0.332	0.68	0.702	0.711	0.704	0.542	–	0.685	0.777	0.324	0.307
SK-LU-1	0.871	1.05	0.988	0.683	0.799	0.739	0.735	0.645	0.813	0.768	0.422	0.467	0.394	0.492	0.414	0.617	0.659	0.699	0.642	0.603
H3255	0.617	0.513	0.506	0.415	0.38	0.978	0.853	0.796	0.91	0.736	0.602	0.57	0.471	0.577	0.527	0.494	0.581	0.681	0.535	0.454
